Results as given in ChEMBL document CHEMBL1201862, “PubChem BioAssay data set” (2004).
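1) Cells in 96-well plates. 2) Compound, 48 h, 5 concentrations. 3) Linear interpolation between surrounding doses. 4) Unreached endpoint = highest concentration. GI50 = concentration required for 50% inhibition of growth.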 Active and inactive are the calls of the source. Cut-off read from the data, not from the text of the source: active = GI50 up to about 1.1 µM and inactive = higher.

What was measured:
Test in all cases: NCI anticancer screen, dose series, 48 h
UACC-62 = test system: UACC-62
CCRF-CEM = test system: CCRF-CEM
U-251 = test system: U-251
KM12 = test system: KM12
RPMI-8226 = test system: RPMI-8226
A498 = test system: A498
SN12C = test system: SN12C
NCI-H522 = test system: NCI-H522
KM-20L2 = test system: KM-20L2
OVCAR-8 = test system: OVCAR-8
XF498 = test system: XF498
MOLT-4 = test system: MOLT-4
HOP-92 = test system: HOP-92
OVCAR-4 = test system: OVCAR-4
HL-60 = test system: HL-60
UO-31 = test system: UO-31
LXFL 529 = test system: LXFL 529
COLO 205 = test system: COLO 205
NCI-H460 = test system: NCI-H460
RXF 631 = test system: RXF 631
HT-29 = test system: HT-29
HOP-62 = test system: HOP-62
SR = test system: SR
M14 = test system: M14
SK-MEL-5 = test system: SK-MEL-5
SNB-19 = test system: SNB-19
DLD-1 = test system: DLD-1
CAKI-1 = test system: CAKI-1
SK-MEL-2 = test system: SK-MEL-2
786-0 = test system: 786-0
SK-MEL-28 = test system: SK-MEL-28
HCT-15 = test system: HCT-15
SF-539 = test system: SF-539
ACHN = test system: ACHN
SNB-78 = test system: SNB-78
K562 = test system: K562
SK-OV-3 = test system: SK-OV-3
HOP-18 = test system: HOP-18
TK-10 = test system: TK-10
DMS-273 = test system: DMS-273
IGROV-1 = test system: IGROV-1
OVCAR-5 = test system: OVCAR-5
NCI-H226 = test system: NCI-H226
A549 = test system: A549
EKVX = test system: EKVX
OVCAR-3 = test system: OVCAR-3
SW-620 = test system: SW-620
Malme-3M = test system: Malme-3M
SF-268 = test system: SF-268
LOX IMVI = test system: LOX IMVI
M19-MEL = test system: M19-MEL
RXF 393 = test system: RXF 393
SF-295 = test system: SF-295
UACC-257 = test system: UACC-257
SNB-75 = test system: SNB-75
HCT-116 = test system: HCT-116
NCI-H23 = test system: NCI-H23
DMS-114 = test system: DMS-114
HCC 2998 = test system: HCC 2998

Compound: COC(=O)c1ccccc1/N=C/c1ccc(N(CCC#N)S(=O)(=O)c2ccccc2)cc1
- GI50 (UACC-62): > 100 µM (inactive)
- GI50 (CCRF-CEM): > 100 µM (inactive)
- GI50 (U-251): > 100 µM (inactive)
- GI50 (KM12): > 100 µM (inactive)
- GI50 (RPMI-8226): > 100 µM (inactive)
- GI50 (A498): > 100 µM (inactive)
- GI50 (SN12C): > 100 µM (inactive)
- GI50 (NCI-H522): > 100 µM (inactive)
- GI50 (KM-20L2): > 100 µM (inactive)
- GI50 (OVCAR-8): > 100 µM (inactive)
- GI50 (XF498): > 100 µM (inactive)
- GI50 (MOLT-4): > 100 µM (inactive)
- GI50 (HOP-92): > 100 µM (inactive)
- GI50 (OVCAR-4): > 100 µM (inactive)
- GI50 (HL-60): > 100 µM (inactive)
- GI50 (UO-31): > 100 µM (inactive)
- GI50 (LXFL 529): > 100 µM (inactive)
- GI50 (COLO 205): > 100 µM (inactive)
- GI50 (NCI-H460): > 100 µM (inactive)
- GI50 (RXF 631): > 100 µM (inactive)
- GI50 (HT-29): > 100 µM (inactive)
- GI50 (HOP-62): > 100 µM (inactive)
- GI50 (SR): > 100 µM (inactive)
- GI50 (M14): > 100 µM (inactive)
- GI50 (SK-MEL-5): > 100 µM (inactive)
- GI50 (SNB-19): > 100 µM (inactive)
- GI50 (DLD-1): > 100 µM (inactive)
- GI50 (CAKI-1): > 100 µM (inactive)
- GI50 (SK-MEL-2): > 100 µM (inactive)
- GI50 (786-0): > 100 µM (inactive)
- GI50 (SK-MEL-28): > 100 µM (inactive)
- GI50 (HCT-15): > 100 µM
- GI50 (SF-539): > 100 µM (inactive)
- GI50 (ACHN): > 100 µM (inactive)
- GI50 (SNB-78): > 100 µM (inactive)
- GI50 (K562): > 100 µM (inactive)
- GI50 (SK-OV-3): > 100 µM (inactive)
- GI50 (HOP-18): > 100 µM (inactive)
- GI50 (TK-10): > 100 µM (inactive)
- GI50 (DMS-273): > 100 µM (inactive)
- GI50 (IGROV-1): > 100 µM (inactive)
- GI50 (OVCAR-5): > 100 µM (inactive)
- GI50 (NCI-H226): > 100 µM (inactive)
- GI50 (A549): > 100 µM (inactive)
- GI50 (EKVX): > 100 µM (inactive)
- GI50 (OVCAR-3): > 100 µM (inactive)
- GI50 (SW-620): > 100 µM (inactive)
- GI50 (Malme-3M): > 100 µM (inactive)
- GI50 (SF-268): > 100 µM (inactive)
- GI50 (LOX IMVI): > 100 µM (inactive)
- GI50 (M19-MEL): > 100 µM (inactive)
- GI50 (RXF 393): > 100 µM (inactive)
- GI50 (SF-295): > 100 µM (inactive)
- GI50 (UACC-257): > 100 µM (inactive)
- GI50 (SNB-75): > 100 µM (inactive)
- GI50 (HCT-116): > 100 µM (inactive)
- GI50 (NCI-H23): > 100 µM (inactive)

Compound: CC1(O)CCC2(C#N)CCC1C2O (stereo not drawn)
- GI50 (UACC-62): > 100 µM (inactive)
- GI50 (CCRF-CEM): 49 µM (inactive)
- GI50 (U-251): > 100 µM (inactive)
- GI50 (KM12): > 100 µM (inactive)
- GI50 (RPMI-8226): 26.5 µM (inactive)
- GI50 (A498): > 100 µM (inactive)
- GI50 (SN12C): > 100 µM (inactive)
- GI50 (NCI-H522): 50.6 µM (inactive)
- GI50 (KM-20L2): 62.2 µM (inactive)
- GI50 (OVCAR-8): > 100 µM (inactive)
- GI50 (XF498): > 100 µM (inactive)
- GI50 (MOLT-4): > 100 µM (inactive)
- GI50 (OVCAR-4): > 100 µM (inactive)
- GI50 (HL-60): > 100 µM (inactive)
- GI50 (UO-31): > 100 µM (inactive)
- GI50 (LXFL 529): > 100 µM (inactive)
- GI50 (COLO 205): 33.9 µM (inactive)
- GI50 (NCI-H460): 43.9 µM (inactive)
- GI50 (RXF 631): > 100 µM (inactive)
- GI50 (DMS-114): 16.2 µM (inactive)
- GI50 (HT-29): > 100 µM (inactive)
- GI50 (HCC 2998): > 100 µM (inactive)
- GI50 (HOP-62): > 100 µM (inactive)
- GI50 (SR): 20.3 µM (inactive)
- GI50 (M14): > 100 µM (inactive)
- GI50 (SK-MEL-5): > 100 µM (inactive)
- GI50 (SNB-19): > 100 µM (inactive)
- GI50 (DLD-1): 34 µM (inactive)
- GI50 (CAKI-1): > 100 µM (inactive)
- GI50 (SK-MEL-2): > 100 µM (inactive)
- GI50 (786-0): > 100 µM (inactive)
- GI50 (SK-MEL-28): > 100 µM (inactive)
- GI50 (HCT-15): > 100 µM
- GI50 (SF-539): > 100 µM (inactive)
- GI50 (ACHN): > 100 µM (inactive)
- GI50 (SNB-78): > 100 µM (inactive)
- GI50 (K562): > 100 µM (inactive)
- GI50 (SK-OV-3): > 100 µM (inactive)
- GI50 (HOP-18): > 100 µM (inactive)
- GI50 (TK-10): > 100 µM (inactive)
- GI50 (DMS-273): 94.4 µM (inactive)
- GI50 (IGROV-1): > 100 µM (inactive)
- GI50 (OVCAR-5): > 100 µM (inactive)
- GI50 (NCI-H226): > 100 µM (inactive)
- GI50 (A549): > 100 µM (inactive)
- GI50 (EKVX): > 100 µM (inactive)
- GI50 (OVCAR-3): > 100 µM (inactive)
- GI50 (Malme-3M): > 100 µM (inactive)
- GI50 (SF-268): > 100 µM (inactive)
- GI50 (LOX IMVI): 23.2 µM (inactive)
- GI50 (M19-MEL): > 100 µM (inactive)
- GI50 (RXF 393): > 100 µM (inactive)
- GI50 (SF-295): > 100 µM (inactive)
- GI50 (UACC-257): > 100 µM (inactive)
- GI50 (SNB-75): > 100 µM (inactive)
- GI50 (HCT-116): 43.5 µM (inactive)
